This is an account of results in patent publication US20260234136A1, “ISOXAZOLIDINES AS RIPK1 INHIBITORS AND USE THEREOF” (GENZYME CORPORATION, priority 2023, published 2026).

Values after ≈ are worked out from the molar mass of the structure shown. Some results are limits rather than exact numbers.

One data set is described as follows: physchem. The following applies: 50 mM phosphate buffer, 25 °C, pH 7.4, aqueous buffer, thermodynamic from solid.
The test system of another data set is U937 cells. In words: Cellular assay in U937 cells to measure the activity of RIPK1-inhibitors on cell death (necroptosis). Type of data set: cell-based. The following applies: Homo sapiens, U-937, 50 μM zVAD.fmk and 100 ng/ml recombinant human TNFα, overnight (18 to 24 hrs), MTS readout.

In general, solubility refers to how much of the substance goes into solution per volume. Read a high solubility as much dissolved substance. In general, IC50 refers to the concentration that gives 50% inhibition. In the case of `Cc1cncc([C@@H]2CCON2C(=O)C2CCN(c3nccc(N4CCCC4=O)n3)CC2)c1` [Example 50, 1-[2-[4-[(3S)-3-(5-methylpyridin-3-yl)-1,2-oxazolidine-2-carbonyl]piperidin-1-yl]pyrimidin-4-yl]pyrrolidin-2-one], in “physchem”, the solubility at 16 h is above 1150 µM. The IC50 with U937 cells worked out at 33 nM.
In the case of `Cc1nc([C@@H]2CCON2C(=O)C2CCN(c3nccc(N4CCC5(CC5)C4=O)n3)CC2)cs1` [Example 52, 5-[2-[4-[(3S)-3-(2-methyl-1,3-thiazol-4-yl)-1,2-oxazolidine-2-carbonyl]piperidin-1-yl]pyrimidin-4-yl]-5-azaspiro[2.4]heptan-4-one], in “physchem”, the solubility at 16 h is 321 µM (≈ 151 µg/mL). Also, the IC50 in the data set with U937 cells came out at 24 nM.
On the same counts, the results for `Cc1ncc([C@@H]2CCON2C(=O)C2CCN(c3nccc(N4CCCC4=O)n3)CC2)cc1F` [Example 56, 1-[2-[4-[(3S)-3-(5-fluoro-6-methylpyridin-3-yl)-1,2-oxazolidine-2-carbonyl]piperidin-1-yl]pyrimidin-4-yl]pyrrolidin-2-one] are above 1100 µM and 21 nM.
For `O=C(C1CCN(c2nccc(N3CCCC4(CC4)C3=O)n2)CC1)N1OCC[C@H]1c1cnccn1` [Example 57, 5-[2-[4-[(3S)-3-pyrazin-2-yl-1,2-oxazolidine-2-carbonyl]piperidin-1-yl]pyrimidin-4-yl]-5-azaspiro[2.5]octan-4-one] the same measures were above 1080 µM and 59 nM.
For `Cc1nc([C@@H]2CCON2C(=O)C2CCN(c3nccc(N4CCC(F)(F)C4=O)n3)CC2)cs1` [Example 59, 3,3-difluoro-1-[2-[4-[(3S)-3-(2-methyl-1,3-thiazol-4-yl)-1,2-oxazolidine-2-carbonyl]piperidin-1-yl]pyrimidin-4-yl]pyrrolidin-2-one] the same measures were 217 µM (≈ 104 µg/mL) and 80 nM.
In “physchem”, `Cc1ncc([C@@H]2CCON2C(=O)C2CCN(c3nccc(N4CCOC4=O)n3)CC2)cc1F` [Example 65, 3-[2-[4-[(3S)-3-(5-fluoro-6-methylpyridin-3-yl)-1,2-oxazolidine-2-carbonyl]piperidin-1-yl]pyrimidin-4-yl]-1,3-oxazolidin-2-one] gave a solubility at 16 h of 209 µM (≈ 95.5 µg/mL). In the data set on U937 cells, the IC50 was determined as 6 nM.
The compound `Cc1ccc([C@@H]2CCON2C(=O)[C@@H]2CCN(c3ncnc(-c4ccnn4C)n3)CC23CC3)cn1` [Example 69, [(8R)-5-[4-(2-methylpyrazol-3-yl)-1,3,5-triazin-2-yl]-5-azaspiro[2.5]octan-8-yl]-[(3S)-3-(6-methylpyridin-3-yl)-1,2-oxazolidin-2-yl]methanone] registered a solubility at 16 h in “physchem” of 601 µM (≈ 277 µg/mL). Moreover, the half-maximal inhibitory concentration (IC50) in the data set with U937 cells was 9 nM.
Consider `O=C1CCCN1c1nccc(N2CCC(C(=O)N3OCC[C@H]3c3cncc(F)c3)CC2)n1` [Example 71, 1-[4-[4-[(3S)-3-(5-fluoropyridin-3-yl)-1,2-oxazolidine-2-carbonyl]piperidin-1-yl]pyrimidin-2-yl]pyrrolidin-2-one], for which, in “physchem”, the solubility at 16 h was above 1140 µM. Further, the IC50 in the data set on U937 cells amounted to 2340 nM.
For `O=C(C1CCN(c2nccc(N3CCC(F)(F)C3=O)n2)CC1)N1OCC[C@H]1c1cncc(F)c1` [Example 75, 3,3-difluoro-1-[2-[4-[(3S)-3-(5-fluoropyridin-3-yl)-1,2-oxazolidine-2-carbonyl]piperidin-1-yl]pyrimidin-4-yl]pyrrolidin-2-one], in “physchem”, the solubility at 16 h came to 98.4 µM (≈ 46.9 µg/mL). For the same compound, the concentration for half-maximal inhibition (IC50) with U937 cells amounted to 58 nM.
`Cc1ccc([C@@H]2CCON2C(=O)C2CCN(c3ncc(F)c(-n4ccnc4C)n3)CC2)cn1` [Example 77, [1-[5-fluoro-4-(2-methylimidazol-1-yl)pyrimidin-2-yl]piperidin-4-yl]-[(3S)-3-(6-methylpyridin-3-yl)-1,2-oxazolidin-2-yl]methanone]: in the data set “physchem”, the solubility at 16 h was above 1110 µM. Also, in the data set with U937 cells, the half-maximal inhibitory concentration (IC50) was found to be 1 nM.
For `Cc1ccc([C@@H]2CCON2C(=O)C2CCN(c3nccc(N4CCCC4=O)n3)CC2)cn1` [Example 81, 1-[2-[4-[(3S)-3-(6-methylpyridin-3-yl)-1,2-oxazolidine-2-carbonyl]piperidin-1-yl]pyrimidin-4-yl]pyrrolidin-2-one] the same measures were above 1150 µM and 52 nM.
As for `Cc1ccc([C@@H]2CCON2C(=O)C2CCN(c3cc(N4CCCC4=O)ncn3)CC2)cn1` [Example 82, 1-[6-[4-[(3S)-3-(6-methylpyridin-3-yl)-1,2-oxazolidine-2-carbonyl]piperidin-1-yl]pyrimidin-4-yl]pyrrolidin-2-one], in “physchem”, the solubility at 16 h was above 1150 µM. The IC50 in the data set with U937 cells came out at 10000 nM.
As to `Cc1ccc([C@@H]2CCON2C(=O)C2CCN(c3ccnc(N4CCC(C)(C)C4=O)n3)CC2)cn1` [Example 84, 3,3-dimethyl-1-[4-[4-[(3S)-3-(6-methylpyridin-3-yl)-1,2-oxazolidine-2-carbonyl]piperidin-1-yl]pyrimidin-2-yl]pyrrolidin-2-one], in the data set “physchem”, the solubility at 16 h was above 1080 µM. Also, the IC50 in the data set with U937 cells was 8130 nM.
`Cc1ccc([C@@H]2CCON2C(=O)C2CCN(c3nccc(N4C(=O)CCC4(C)C)n3)CC2)cn1` [Example 88, 5,5-dimethyl-1-[2-[4-[(3S)-3-(6-methylpyridin-3-yl)-1,2-oxazolidine-2-carbonyl]piperidin-1-yl]pyrimidin-4-yl]pyrrolidin-2-one] returned a solubility at 16 h in “physchem” above 1080 µM. The IC50 with U937 cells was determined as 1360 nM.
For `O=C1OCCN1c1ccnc(N2CCC(C(=O)N3OCC[C@H]3c3cncc(F)c3)CC2)n1` [Example 91, 3-[2-[4-[(3S)-3-(5-fluoropyridin-3-yl)-1,2-oxazolidine-2-carbonyl]piperidin-1-yl]pyrimidin-4-yl]-1,3-oxazolidin-2-one] the same measures were above 1130 µM and 7 nM.
For `CO[C@@H]1CCCN(c2ccnc(N3CCC(C(=O)N4OCC[C@H]4c4ccc(C)nc4)CC3)n2)C1=O` [Example 93, (3R)-3-methoxy-1-[2-[4-[(3S)-3-(6-methylpyridin-3-yl)-1,2-oxazolidine-2-carbonyl]piperidin-1-yl]pyrimidin-4-yl]piperidin-2-one] the same measures were above 1040 µM and 436 nM.
In turn, `CO[C@H]1CCCN(c2ccnc(N3CCC(C(=O)N4OCC[C@H]4c4ccc(C)nc4)CC3)n2)C1=O` [Example 94, (3S)-3-methoxy-1-[2-[4-[(3S)-3-(6-methylpyridin-3-yl)-1,2-oxazolidine-2-carbonyl]piperidin-1-yl]pyrimidin-4-yl]piperidin-2-one] came in with a solubility at 16 h in the data set “physchem” above 1040 µM. Also, the IC50 in the data set with U937 cells was 216 nM.
As to `Cc1nc([C@@H]2CCON2C(=O)C2CCN(c3nccc(N4CCCC4=O)n3)CC2)co1` [Example 95, 1-[2-[4-[(3S)-3-(2-methyl-1,3-oxazol-4-yl)-1,2-oxazolidine-2-carbonyl]piperidin-1-yl]pyrimidin-4-yl]pyrrolidin-2-one], in “physchem”, the solubility at 16 h was above 1170 µM. The IC50 in the data set with U937 cells was determined as 26 nM.
For `CO[C@@H]1CCCN(c2ccnc(N3CCC(C(=O)N4OCC[C@H]4c4cncc(F)c4)CC3)n2)C1=O` [Example 96, (3R)-1-[2-[4-[(3S)-3-(5-fluoropyridin-3-yl)-1,2-oxazolidine-2-carbonyl]piperidin-1-yl]pyrimidin-4-yl]-3-methoxypiperidin-2-one], the solubility at 16 h in the data set “physchem” is above 1030 µM. Besides, in the data set on U937 cells, the IC50 turned out to be 149 nM.
With `CO[C@H]1CCCN(c2ccnc(N3CCC(C(=O)N4OCC[C@H]4c4cncc(F)c4)CC3)n2)C1=O` [Example 97, (3S)-1-[2-[4-[(3S)-3-(5-fluoropyridin-3-yl)-1,2-oxazolidine-2-carbonyl]piperidin-1-yl]pyrimidin-4-yl]-3-methoxypiperidin-2-one], the solubility at 16 h in the data set “physchem” is above 1030 µM. The IC50 with U937 cells is 86 nM.
In the case of `O=C1CCCN1c1ccnc(N2CC[C@@H](C(=O)N3OCC[C@H]3c3cnccn3)C3(CC3)C2)n1` [Example 100, 1-[2-[(8R)-8-[(3S)-3-pyrazin-2-yl-1,2-oxazolidine-2-carbonyl]-5-azaspiro[2.5]octan-5-yl]pyrimidin-4-yl]pyrrolidin-2-one], the solubility at 16 h in the data set “physchem” was 269 µM (≈ 121 µg/mL). In the data set with U937 cells, the IC50 worked out at 12 nM.
For `Cc1ncc([C@@H]2CCON2C(=O)C2CCN(c3nccc(-c4cc(N)nn4C)n3)CC2)cc1F` [Example 102, [1-[4-(5-amino-2-methylpyrazol-3-yl)pyrimidin-2-yl]piperidin-4-yl]-[(3S)-3-(5-fluoro-6-methylpyridin-3-yl)-1,2-oxazolidin-2-yl]methanone] the same measures were above 1070 µM and 1 nM.
In turn, `Cc1cncc([C@@H]2CCON2C(=O)C2CCN(c3ncc(F)c(N4CCC5(CC5)C4=O)n3)CC2)c1` [Example 103, 5-[5-fluoro-2-[4-[(3S)-3-(5-methylpyridin-3-yl)-1,2-oxazolidine-2-carbonyl]piperidin-1-yl]pyrimidin-4-yl]-5-azaspiro[2.4]heptan-4-one] came in with a solubility at 16 h in the data set “physchem” above 1040 µM. In addition, the IC50 with U937 cells stood at 6 nM.
In the data set “physchem”, `O=C(C1CCN(c2ncc(F)c(N3CCC4(CC4)C3=O)n2)CC1)N1OCC[C@H]1c1cncc(F)c1` [Example 104, 5-[5-fluoro-2-[4-[(3S)-3-(5-fluoropyridin-3-yl)-1,2-oxazolidine-2-carbonyl]piperidin-1-yl]pyrimidin-4-yl]-5-azaspiro[2.4]heptan-4-one] gave a solubility at 16 h above 1030 µM. The IC50 in the data set on U937 cells was 2 nM.
